From patent US5739146A, “Substituted cyclo or bicycloalkylamides of (8β)-6-(substituted) ergolines” (Eli Lilly and Company, priority 1995, dated 1998) come the findings set out here.

For one assay, the target named is T1, 5HT1B receptor (Rattus norvegicus, UniProt P28564).
T1 construct: membranes isolated from bovine choroid plexus (for 5HT1.sbsb.c) or rat brain; from tissue
The assay is described as follows: Inhibition of 3H-serotonin binding to 5HT1B receptor. On the set-up: species or system male Sprague-Dawley rats. As to the method:
(§1) Radioactivity was measured with a liquid scintillation spectrometer.

In a further assay the target is 5HT1D receptor. The assay is described as follows: Inhibition of 3H-serotonin binding to 5HT1D receptor. As to conditions: rat brain membranes, 25 °C, 30 min, pH 7.4, read-out: Inhibition of Radioligand Binding to 5HT Receptor 1D (IC50). Set-up: species or system male Sprague-Dawley rats. The protocol: as §1
The target of a further assay is 5HT2 receptor (Rattus norvegicus, UniProt P14842). The experiment in a line: biochemical. The protocol:
Binding was terminated by filtering samples under reduced pressure through glass fiber (GFB) filters. […] Radioactivity was measured with a liquid scintillation spectrometer.

The target of a further assay is T2, 5HT1A receptor (Rattus norvegicus, UniProt P19327).
T2 construct: membranes isolated from bovine choroid plexus (for 5HT1.sbsb.c) or rat brain; from tissue
T2 sequence (P19327 1-422): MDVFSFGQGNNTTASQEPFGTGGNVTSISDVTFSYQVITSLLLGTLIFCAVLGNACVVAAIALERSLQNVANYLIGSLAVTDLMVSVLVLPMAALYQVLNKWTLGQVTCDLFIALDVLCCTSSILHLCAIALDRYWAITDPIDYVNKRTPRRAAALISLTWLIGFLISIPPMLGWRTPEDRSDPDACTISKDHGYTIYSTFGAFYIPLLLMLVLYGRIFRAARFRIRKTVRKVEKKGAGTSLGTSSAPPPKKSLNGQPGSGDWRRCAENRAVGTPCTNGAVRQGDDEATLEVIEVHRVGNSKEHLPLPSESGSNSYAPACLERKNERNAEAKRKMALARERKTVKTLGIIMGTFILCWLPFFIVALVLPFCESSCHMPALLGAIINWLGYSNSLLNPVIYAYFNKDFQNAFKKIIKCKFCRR
The experiment in a line: Inhibition of 3H-8-hydroxy-2-(di-n-propylamino)tetralin binding to 5HT1A receptor. Set-up: species or system male Sprague-Dawley rats. The protocol:
as §1

Another assay deals with T3, 5HT1C receptor (Bos taurus, UniProt A0AAA9SBU1).
T3 sequence (A0AAA9SBU1 33-457): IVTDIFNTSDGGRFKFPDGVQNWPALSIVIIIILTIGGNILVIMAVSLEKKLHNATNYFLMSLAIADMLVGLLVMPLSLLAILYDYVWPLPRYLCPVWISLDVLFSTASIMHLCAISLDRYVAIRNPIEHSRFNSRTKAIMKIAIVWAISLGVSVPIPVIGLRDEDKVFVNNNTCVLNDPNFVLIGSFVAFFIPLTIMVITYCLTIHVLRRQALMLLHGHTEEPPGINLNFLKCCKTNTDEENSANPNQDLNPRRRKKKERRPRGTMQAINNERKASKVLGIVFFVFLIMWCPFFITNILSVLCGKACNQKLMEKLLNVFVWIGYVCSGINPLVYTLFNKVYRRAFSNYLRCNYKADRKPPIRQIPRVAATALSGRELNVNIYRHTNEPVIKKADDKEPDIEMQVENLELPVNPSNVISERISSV
The experiment in a line: Inhibition of 3H-mesulergine binding to 5HT1C receptor. As to the method: as §1

Structures can show the parent of a compound that is named as a salt. Where two headings read alike, the source gives them in different places.

Chain of 5HT2 receptor (P14842 whole entry): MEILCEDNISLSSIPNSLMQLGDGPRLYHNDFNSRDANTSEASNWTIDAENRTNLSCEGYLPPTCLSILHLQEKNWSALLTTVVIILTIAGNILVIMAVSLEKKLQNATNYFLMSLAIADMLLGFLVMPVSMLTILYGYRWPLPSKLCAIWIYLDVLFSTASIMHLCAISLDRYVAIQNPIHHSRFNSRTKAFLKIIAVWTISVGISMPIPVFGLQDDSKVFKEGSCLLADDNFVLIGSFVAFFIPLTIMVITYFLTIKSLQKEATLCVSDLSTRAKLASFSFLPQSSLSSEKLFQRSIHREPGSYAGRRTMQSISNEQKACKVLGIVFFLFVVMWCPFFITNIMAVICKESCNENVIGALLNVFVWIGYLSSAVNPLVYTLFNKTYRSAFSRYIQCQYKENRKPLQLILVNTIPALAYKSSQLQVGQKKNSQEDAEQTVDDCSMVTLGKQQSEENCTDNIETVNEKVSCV
T1 sequence (P28564 whole entry): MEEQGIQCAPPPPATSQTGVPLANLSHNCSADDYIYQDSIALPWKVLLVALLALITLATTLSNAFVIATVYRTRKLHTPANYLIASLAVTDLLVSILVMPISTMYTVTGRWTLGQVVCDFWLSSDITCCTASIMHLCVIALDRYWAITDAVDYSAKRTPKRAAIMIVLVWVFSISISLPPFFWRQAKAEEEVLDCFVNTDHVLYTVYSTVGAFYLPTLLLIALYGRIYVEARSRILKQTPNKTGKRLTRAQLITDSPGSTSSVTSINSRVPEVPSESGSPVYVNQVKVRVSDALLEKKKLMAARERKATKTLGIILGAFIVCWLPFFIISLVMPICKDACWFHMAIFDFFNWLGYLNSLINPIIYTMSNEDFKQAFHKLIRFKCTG

As for `CC(=O)N[C@H]1CC[C@H](NC(=O)[C@@H]2C[C@@H]3c4cccc5c4c(cn5C(C)C)C[C@H]3N(C)C2)CC1` (relative stereo) [Example 1, (8β)-N-(trans-4-acetamidocyclohexyl)-1-isopropyl-6-methylergoline-8-carboxamide], the concentration for half-maximal inhibition (IC50) at 5HT1B receptor (rat brain membranes, 3H-serotonin, 25 °C, 30 min, pH 7.4, read-out: Inhibition of Radioligand Binding to 5HT Receptor 1B (IC50)) is greater than 1000 nM; at 5HT1D receptor, 198 nM; against 5HT2 receptor, 31 nM; at 5HT1A receptor (rat brain membranes, 3H-8-hydroxy-2-(di-n-propylamino)tetralin, 25 °C, 30 min, pH 7.4, read-out: Inhibition of Radioligand Binding to 5HT Receptor 1A (IC50)), 2310 nM; at 5HT1C receptor (read-out: Inhibition of Radioligand Binding to 5HT Receptor 1C (IC50); bovine choroid plexus membranes; 2 nM 3H-mesulergine; 25 °C, 30 min, pH 7.4), 18 nM.

For the compound `CC(C)n1cc2c3c(cccc31)[C@H]1C[C@@H](C(=O)N[C@H]3CC[C@H](NS(C)(=O)=O)CC3)CN(C)[C@@H]1C2` (relative stereo) [Example 2, (8β)-N-(trans-4-methylsulfonamidocyclohexyl)-1-isopropyl-6-methylergoline-8-carboxamide maleate], the IC50 on 5HT1B receptor worked out at 489 nM; on 5HT1D receptor, 276 nM; on 5HT2 receptor it was 23 nM; on 5HT1A receptor, 2650 nM; on 5HT1C receptor (bovine choroid plexus membranes; 2 nM 3H-mesulergine; 25 °C, 30 min, pH 7.4; read-out: Inhibition of Radioligand Binding to 5HT Receptor 1C (IC50)), 22 nM.
